This experiment addresses human TRPA1 (Homo sapiens (Human), UniProt O75762). The experiment is described as follows: hTRPA1 CHO Ca2+ AUC EVO (IC50); FLIPR Tetra block of cinnamaldehyde induced calcium influx. Conditions: CHO cells expressing TRPA1, 75 uM cinnamaldehyde agonist. Type of experiment: cell-based. On the procedure:
IC50 values ([…]) of compounds on the human and rat TRPA1 channels were determined using a FLIPR Tetra instrument. CHO cells expressing TRPA1 were plated into 384-well plates, incubated overnight at 37 C, and loaded with BD calcium indicator dye for 1 hr at 37° C. followed by 15 minutes. at room temperature. The assay buffer was Hank's Balanced Salt Solution (HBSS) containing 20 mM HEPES (pH readjusted to 7.4) along with 0.02% BSA.
Following dye load and plate cool down, compounds were added to the cells using FLIPR Tetra. Plates were then incubated with compounds for 20 minutes at room temperature prior to adding agonist. Following this incubation, ˜EC80 concentration of cinnamaldehyde (75 uM for human TRPA1 and 45 uM for rat TRPA1) was added to active the channels and block of cinnamaldehyde induced calcium influx was measured.
IC50 values were fit with a standard Hill function, keeping the Hill coefficient (n) fixed to 1.5. Fixing the Hill coefficient will generally reduce variability of the IC50 determination. The IC50 values were individually examined to make sure the MIN and MAX points were set correctly prior to validation of the results.

Chain of human TRPA1 (O75762 whole entry): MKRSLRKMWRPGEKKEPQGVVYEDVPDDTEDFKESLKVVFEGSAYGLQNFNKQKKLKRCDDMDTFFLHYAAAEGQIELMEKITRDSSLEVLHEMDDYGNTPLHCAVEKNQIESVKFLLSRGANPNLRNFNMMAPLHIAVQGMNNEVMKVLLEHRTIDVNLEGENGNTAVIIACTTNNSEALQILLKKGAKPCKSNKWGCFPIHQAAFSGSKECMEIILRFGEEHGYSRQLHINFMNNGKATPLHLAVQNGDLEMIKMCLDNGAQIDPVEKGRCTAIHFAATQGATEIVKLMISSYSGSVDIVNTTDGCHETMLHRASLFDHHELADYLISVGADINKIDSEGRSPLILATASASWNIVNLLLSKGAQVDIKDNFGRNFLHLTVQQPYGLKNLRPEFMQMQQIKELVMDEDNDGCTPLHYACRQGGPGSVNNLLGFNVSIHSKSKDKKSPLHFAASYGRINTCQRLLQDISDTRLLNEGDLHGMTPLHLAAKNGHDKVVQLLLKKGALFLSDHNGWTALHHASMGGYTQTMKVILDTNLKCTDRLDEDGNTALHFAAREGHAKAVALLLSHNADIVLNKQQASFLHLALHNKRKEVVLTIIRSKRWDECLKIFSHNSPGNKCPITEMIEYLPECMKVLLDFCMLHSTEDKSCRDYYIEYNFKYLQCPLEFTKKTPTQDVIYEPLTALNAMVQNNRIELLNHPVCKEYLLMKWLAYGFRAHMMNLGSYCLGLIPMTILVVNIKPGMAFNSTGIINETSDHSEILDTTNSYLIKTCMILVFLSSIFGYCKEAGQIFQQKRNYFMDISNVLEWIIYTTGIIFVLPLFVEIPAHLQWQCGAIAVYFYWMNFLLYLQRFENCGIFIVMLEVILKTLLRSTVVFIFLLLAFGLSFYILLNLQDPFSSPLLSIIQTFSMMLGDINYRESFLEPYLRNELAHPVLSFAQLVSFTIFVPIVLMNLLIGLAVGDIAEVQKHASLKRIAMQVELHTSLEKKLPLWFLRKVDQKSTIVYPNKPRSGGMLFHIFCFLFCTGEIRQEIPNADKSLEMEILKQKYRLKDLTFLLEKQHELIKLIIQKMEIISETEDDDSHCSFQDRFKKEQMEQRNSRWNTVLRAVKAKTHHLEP

With `O=C(NCc1cc(-c2ccc(C(F)(F)F)cc2)ncn1)[C@@H]1CC[C@@H]1S(=O)(=O)c1ccc(F)cc1` [Example 27, (1S,2S)-2-(4-fluorophenylsulfonyl)-N-((6-(4-(trifluoromethyl)phenyl)pyrimidin-4-yl)methyl)cyclobutanecarboxamide], the IC50 (Table 3) was determined as 113 nM.

As to `CC1(C(=O)NCc2cn(-c3ccc(C(F)(F)F)cc3)nc2Cl)CCCC1S(=O)(=O)c1ccc(F)cc1` (single isomer, unassigned; enantiomer 3) [Example 38, N-((3-chloro-1-(4-(trifluoromethyl)phenyl)-1H-pyrazol-4-yl)methyl)-2-(4-fluorophenylsulfonyl)-1-methylcyclopentanecarboxamide (Enantiomer 3)], the IC50 (Table 1) was found to be 47.1 nM and the IC50 (Table 3) amounted to 47.1 nM. For the compound `CC1(C(=O)NCc2cn(-c3ccc(C(F)(F)F)cc3)nc2Cl)CCCC1S(=O)(=O)c1ccc(F)cc1` (single isomer, unassigned; enantiomer 1) [Example 5, N-((3-chloro-1-(4-(trifluoromethyl)phenyl)-1H-pyrazol-4-yl)methyl)-2-(4-fluorophenylsulfonyl)-1-methylcyclopentanecarboxamide (Enantiomer 1)], the IC50 was 8.79 nM (Table 1) and 8.79 nM (Table 3). With `CC1(C(=O)NCc2cn(-c3ccc(C(F)(F)F)nc3)nc2Cl)CCCC1S(=O)(=O)c1ccc(F)cc1` (single isomer, unassigned; enantiomer 2) [Example 32, N-((3-chloro-1-(6-(trifluoromethyl)pyridin-3-yl)-1H-pyrazol-4-yl)methyl)-2-(4-fluorophenylsulfonyl)-1-methylcyclopentanecarboxamide (Enantiomer 2)], the 50% inhibitory concentration (IC50) (Table 3) came out at 85.7 nM.

For `O=C(NCc1cn(-c2ccc(C(F)(F)F)cc2)nc1Cl)[C@@H]1CC[C@@H]1S(=O)(=O)c1ccc(F)cc1` [Example 28, (1S,2S)-N-((3-chloro-1-(4-(trifluoromethyl)phenyl)-1H-pyrazol-4-yl)methyl)-2-(4-fluorophenylsulfonyl) cyclobutanecarboxamide], the IC50 is 19.4 nM (Table 1) and 19.4 nM (Table 3). With `O=C(NCc1cn(-c2ccc(C(F)(F)F)nc2)nc1C(F)(F)F)[C@@H]1CC[C@@H]1S(=O)(=O)c1ccc(F)cc1` [Example 24, (1S,2S)-2-(4-fluorophenylsulfonyl)-N-((3-(trifluoromethyl)-1-(6-(trifluoromethyl)pyridin-3-yl)-1H-pyrazol-4-yl)methyl)cyclobutanecarboxamide], the IC50 is 41.5 nM (Table 1) and 41.5 nM (Table 3).

Turning to `COc1nn(-c2ccc(C(F)(F)F)cc2)cc1CNC(=O)C1CCC1(C)S(=O)(=O)c1ccc(F)cc1` (single isomer, unassigned; enantiomer 2) [Example 23, 2-(4-fluorophenylsulfonyl)-N-((3-methoxy-1-(4-(trifluoromethyl)phenyl)-1H-pyrazol-4-yl)methyl)-2-methylcyclobutanecarboxamide (Enantiomer 2)], the IC50 (Table 1) was determined as 38 nM and the IC50 (Table 3) was 38 nM.

Regarding `O=C(NCc1cn(-c2ccc(C(F)(F)F)cc2)nc1Cl)C1CCC1S(=O)(=O)c1ccc(F)cc1` (single isomer, unassigned; enantiomer 2) [Example 29, N-((3-chloro-1-(4-(trifluoromethyl)phenyl)-1H-pyrazol-4-yl)methyl)-2-(4-fluorophenylsulfonyl) cyclobutanecarboxamide (Enantiomer 2)], the IC50 (Table 3) came out at 65.8 nM. For `CC1(C(=O)NCc2cn(-c3ccc(C(F)(F)F)cc3)nc2Cl)CCCC1S(=O)(=O)c1ccc(F)cc1` (single isomer, unassigned; enantiomer 2) [Example 37, N-((3-chloro-1-(4-(trifluoromethyl)phenyl)-1H-pyrazol-4-yl)methyl)-2-(4-fluorophenylsulfonyl)-1-methylcyclopentanecarboxamide (Enantiomer 2)], the IC50 (Table 1) is 23.9 nM and the IC50 (Table 3) came to 23.9 nM.

As to `COc1nn(-c2ccc(C(F)(F)F)cc2)cc1CNC(=O)C1CCC1(C)S(=O)(=O)c1ccc(F)cc1` (single isomer, unassigned; enantiomer 1) [Example 22, 2-(4-fluorophenylsulfonyl)-N-(3-methoxy-1-(4-(trifluoromethyl)phenyl)-1H-pyrazol-4-yl)methyl)-2-methylcyclobutanecarboxamide (Enantiomer 1)], the IC50 (Table 3) is 71.7 nM.

In the case of `CC1(C(=O)NCc2cn(-c3ccc(C(F)(F)F)nc3)nc2Cl)CCCC1S(=O)(=O)c1ccc(F)cc1` (single isomer, unassigned; enantiomer 3) [Example 33, N-((3-chloro-1-(6-(trifluoromethyl)pyridin-3-yl)-1H-pyrazol-4-yl)methyl)-2-(4-fluorophenylsulfonyl)-1-methylcyclopentanecarboxamide (Enantiomer 3)], the IC50 (Table 3) turned out to be 88.5 nM.

Take `COc1nn(-c2ccc(C(F)(F)F)nc2)cc1CNC(=O)C1(C)CCCC1S(=O)(=O)c1ccc(F)cc1` (single isomer, unassigned; enantiomer 2) [Example 35, 2-(4-fluorophenylsulfonyl)-N-((3-methoxy-1-(6-(trifluoromethyl)pyridin-3-yl)-1H-pyrazol-4-yl)methyl)-1-methylcyclopentanecarboxamide (Enantiomer 2)]: the 50% inhibitory concentration (IC50) (Table 3) was 199 nM. Turning to `O=C(NCc1cn(-c2ccc(C(F)(F)F)nc2)nc1C(F)F)[C@@H]1CC[C@@H]1S(=O)(=O)c1ccc(F)cc1` [Example 20, (1S,2S)-N-((3-(difluoromethyl)-1-(6-(trifluoromethyl)pyridin-3-yl)-1H-pyrazol-4-yl)methyl)-2-((4-fluorophenyl)sulfonyl) cyclobutanecarboxamide], the IC50 (Table 3) was found to be 98.4 nM. Take `COc1nn(-c2ccc(C(F)(F)F)nc2)cc1CC(=O)NC1CCC1S(=O)(=O)c1ccc(F)cc1` (single isomer, unassigned; enantiomer 2) [Example 12, N-(2-((4-fluorophenyl)sulfonyl)cyclobutyl)-2-(3-methoxy-1-(6-(trifluoromethyl)pyridin-3-yl)-1H-pyrazol-4-yl)acetamide (Enantiomer 2)]: for the setting “Table 3”, the IC50 stood at 213 nM.

As to `O=C(NCc1cc(-c2cccc(C(F)(F)F)c2)ncn1)[C@@H]1CC[C@@H]1S(=O)(=O)c1ccc(F)cc1` [Example 21, (1S,2S)-2-((4-fluorophenyl)sulfonyl)-N-((6-(3-(trifluoromethyl)phenyl)pyrimidin-4-yl)methyl)cyclobutanecarboxamide], the IC50 (Table 3) came out at 386 nM. For `O=C(Cc1cn(-c2cnc(C(F)(F)F)nc2)nc1C(F)(F)F)N[C@@H]1CC[C@@H]1S(=O)(=O)c1ccc(F)cc1` [Example 3, N-((1R,2S)-2-(4-fluorophenylsulfonyl)cyclobutyl)-2-(3-(trifluoromethyl)-1-(2-(trifluoromethyl)pyrimidin-5-yl)-1H-pyrazol-4-yl)acetamide], the IC50 was found to be 7.88 nM (Table 1) and 7.88 nM (Table 3). As to `O=C(NCc1cn(-c2ccc(C(F)(F)F)nc2)nc1C(F)(F)F)[C@@H]1CCC[C@@H]1S(=O)(=O)c1ccc(F)cc1` [Example 41, (1S,2S)-2-[(4-fluorobenzene)sulfonyl]-N-[[3-(trifluoromethyl)-1-[6-(trifluoromethyl)pyridin-3-yl]-1H-pyrazol-4-yl]methyl]cyclopentane-1-carboxamide], the 50% inhibitory concentration (IC50) (Table 3) worked out at 40.4 nM.

For the compound `COc1nn(-c2ccc(C(F)(F)F)nc2)cc1CC(=O)N[C@@H]1CC[C@@H]1S(=O)(=O)c1ccc(F)cc1` [Example 13, N-((1R,2S)-2-((4-fluorophenyl)sulfonyl)cyclobutyl)-2-(3-methoxy-1-(6-(trifluoromethyl)pyridin-3-yl)-1H-pyrazol-4-yl)acetamide], the 50% inhibitory concentration (IC50) by setting is: (Table 1) 18.5 nM; (Table 3) 18.5 nM. For `O=C(NCc1cn(-c2ccc(C(F)(F)F)cc2)nc1C(F)F)[C@@H]1CC[C@@H]1S(=O)(=O)c1ccc(F)cc1` [Example 1, (1S,2S)-N-((3-(difluoromethyl)-1-(4-(trifluoromethyl)phenyl)-1H-pyrazol-4-yl)methyl)-2-(4-fluorophenylsulfonyl) cyclobutanecarboxamide], the IC50 (Table 3) was found to be 34.6 nM.

Turning to `COc1nn(-c2ccc(C(F)F)cc2)cc1CC(=O)N[C@@H]1CC[C@@H]1S(=O)(=O)c1ccc(F)cc1` [Example 10, 2-(1-(4-(difluoromethyl)phenyl)-3-methoxy-1H-pyrazol-4-yl)-N-((1R,2S)-2-(4-fluorophenylsulfonyl)cyclobutyl) acetamide], the concentration for half-maximal inhibition (IC50) (Table 3) came to 43.6 nM. Consider `COc1nn(-c2ccc(C(F)(F)F)nc2)cc1CNC(=O)C1(C)CCCC1S(=O)(=O)c1ccc(F)cc1` (single isomer, unassigned; enantiomer 1) [Example 34, 2-(4-fluorophenylsulfonyl)-N-((3-methoxy-1-(6-(trifluoromethyl)pyridin-3-yl)-1H-pyrazol-4-yl)methyl)-1-methylcyclopentanecarboxamide (Enantiomer 1)], for which the IC50 (Table 1) worked out at 33.1 nM and the IC50 (Table 3) was 33.1 nM.

For the compound `O=C(Cc1cn(-c2cnc(C(F)(F)F)nc2)nc1Cl)N[C@@H]1CC[C@@H]1S(=O)(=O)c1ccc(F)cc1` [Example 7, 2-(3-chloro-1-(2-(trifluoromethyl)pyrimidin-5-yl)-1H-pyrazol-4-yl)-N-((1R,2S)-2-(4-fluorophenylsulfonyl)cyclobutyl) acetamide], the 50% inhibitory concentration (IC50) came out at 40.3 nM (Table 1) and 40.3 nM (Table 3).

By IC50 is commonly meant the concentration at which inhibition is half-maximal.
